Results published in a compilation of properties of binary mixtures (doi:10.1021/acs.jced.0c00801).

Assay: xn = mol fraction of the nth substance listed
Conditions: 101 kPa

CC[n+]1ccn(C)c1.N#C[S-] + CCO
speed of sound (283.15 K, x1 = 0.0504): 1281.9 m/s
viscosity (283.15 K, x1 = 0.0504): 1.93 mPa·s
speed of sound (283.15 K, x1 = 0.1001): 1345.1 m/s
viscosity (283.15 K, x1 = 0.1001): 2.34 mPa·s
speed of sound (283.15 K, x1 = 0.2012): 1466.4 m/s
viscosity (283.15 K, x1 = 0.2012): 3.49 mPa·s
speed of sound (283.15 K, x1 = 0.3003): 1560.9 m/s
viscosity (283.15 K, x1 = 0.3003): 4.8 mPa·s
speed of sound (283.15 K, x1 = 0.3945): 1641 m/s
viscosity (283.15 K, x1 = 0.3945): 6.72 mPa·s
speed of sound (283.15 K, x1 = 0.5007): 1711 m/s
viscosity (283.15 K, x1 = 0.5007): 9.41 mPa·s
speed of sound (283.15 K, x1 = 0.6016): 1768.2 m/s
viscosity (283.15 K, x1 = 0.6016): 12.82 mPa·s
speed of sound (283.15 K, x1 = 0.7018): 1805.7 m/s
viscosity (283.15 K, x1 = 0.7018): 16.95 mPa·s
speed of sound (283.15 K, x1 = 0.951): 1875.9 m/s
viscosity (283.15 K, x1 = 0.951): 34.19 mPa·s
speed of sound (283.15 K, x1 = 1): 1887.6 m/s
viscosity (283.15 K, x1 = 1): 38.41 mPa·s
speed of sound (293.15 K, x1 = 0.0504): 1249.4 m/s
viscosity (293.15 K, x1 = 0.0504): 1.58 mPa·s
speed of sound (293.15 K, x1 = 0.1001): 1314.4 m/s
viscosity (293.15 K, x1 = 0.1001): 1.91 mPa·s
speed of sound (293.15 K, x1 = 0.2012): 1438.1 m/s
viscosity (293.15 K, x1 = 0.2012): 2.88 mPa·s
speed of sound (293.15 K, x1 = 0.3003): 1534 m/s
viscosity (293.15 K, x1 = 0.3003): 3.84 mPa·s
speed of sound (293.15 K, x1 = 0.3945): 1614.9 m/s
viscosity (293.15 K, x1 = 0.3945): 5.3 mPa·s
speed of sound (293.15 K, x1 = 0.5007): 1685.5 m/s
viscosity (293.15 K, x1 = 0.5007): 7.24 mPa·s
speed of sound (293.15 K, x1 = 0.6016): 1743.3 m/s
viscosity (293.15 K, x1 = 0.6016): 9.63 mPa·s
speed of sound (293.15 K, x1 = 0.7018): 1781.1 m/s
viscosity (293.15 K, x1 = 0.7018): 12.52 mPa·s
speed of sound (293.15 K, x1 = 0.8045): 1813.9 m/s
viscosity (293.15 K, x1 = 0.8045): 16.42 mPa·s
speed of sound (293.15 K, x1 = 0.951): 1851.7 m/s
viscosity (293.15 K, x1 = 0.951): 23.87 mPa·s
speed of sound (293.15 K, x1 = 1): 1863.4 m/s
viscosity (293.15 K, x1 = 1): 26.31 mPa·s
speed of sound (303.15 K, x1 = 0.1001): 1284.3 m/s
viscosity (303.15 K, x1 = 0.1001): 1.59 mPa·s
speed of sound (303.15 K, x1 = 0.3003): 1507.4 m/s
viscosity (303.15 K, x1 = 0.3003): 3.14 mPa·s
speed of sound (303.15 K, x1 = 0.3945): 1589.2 m/s
viscosity (303.15 K, x1 = 0.3945): 4.29 mPa·s
speed of sound (303.15 K, x1 = 0.5007): 1660.4 m/s
viscosity (303.15 K, x1 = 0.5007): 5.73 mPa·s
speed of sound (303.15 K, x1 = 0.6016): 1718.9 m/s
viscosity (303.15 K, x1 = 0.6016): 7.51 mPa·s
speed of sound (303.15 K, x1 = 0.7018): 1757 m/s
viscosity (303.15 K, x1 = 0.7018): 9.54 mPa·s
speed of sound (303.15 K, x1 = 0.8045): 1790 m/s
viscosity (303.15 K, x1 = 0.8045): 12.35 mPa·s
speed of sound (303.15 K, x1 = 0.8971): 1813.9 m/s
viscosity (303.15 K, x1 = 0.8971): 15.08 mPa·s
speed of sound (303.15 K, x1 = 1): 1839.7 m/s
viscosity (303.15 K, x1 = 1): 19.03 mPa·s
speed of sound (313.15 K, x1 = 0.1001): 1254.6 m/s
viscosity (313.15 K, x1 = 0.1001): 1.34 mPa·s
speed of sound (313.15 K, x1 = 0.2012): 1382.8 m/s
viscosity (313.15 K, x1 = 0.2012): 1.93 mPa·s
speed of sound (313.15 K, x1 = 0.3003): 1481.3 m/s
viscosity (313.15 K, x1 = 0.3003): 2.63 mPa·s
speed of sound (313.15 K, x1 = 0.3945): 1563.9 m/s
viscosity (313.15 K, x1 = 0.3945): 3.56 mPa·s
speed of sound (313.15 K, x1 = 0.5007): 1635.8 m/s
viscosity (313.15 K, x1 = 0.5007): 4.67 mPa·s
speed of sound (313.15 K, x1 = 0.8045): 1766.5 m/s
viscosity (313.15 K, x1 = 0.8045): 9.58 mPa·s
speed of sound (313.15 K, x1 = 0.951): 1804.6 m/s
viscosity (313.15 K, x1 = 0.951): 13 mPa·s
speed of sound (323.15 K, x1 = 0.0504): 1155 m/s
viscosity (323.15 K, x1 = 0.0504): 0.94 mPa·s
speed of sound (323.15 K, x1 = 0.1001): 1225.4 m/s
viscosity (323.15 K, x1 = 0.1001): 1.14 mPa·s
speed of sound (323.15 K, x1 = 0.2012): 1355.8 m/s
viscosity (323.15 K, x1 = 0.2012): 1.64 mPa·s
speed of sound (323.15 K, x1 = 0.3003): 1455.6 m/s
viscosity (323.15 K, x1 = 0.3003): 2.24 mPa·s
speed of sound (323.15 K, x1 = 0.3945): 1539.2 m/s
viscosity (323.15 K, x1 = 0.3945): 3 mPa·s
speed of sound (323.15 K, x1 = 0.5007): 1611.5 m/s
viscosity (323.15 K, x1 = 0.5007): 3.91 mPa·s
speed of sound (323.15 K, x1 = 0.6016): 1671.5 m/s
viscosity (323.15 K, x1 = 0.6016): 4.97 mPa·s
speed of sound (323.15 K, x1 = 0.8045): 1743.5 m/s
viscosity (323.15 K, x1 = 0.8045): 7.66 mPa·s
speed of sound (323.15 K, x1 = 0.8971): 1767.8 m/s
viscosity (323.15 K, x1 = 0.8971): 9.05 mPa·s
speed of sound (323.15 K, x1 = 1): 1793.9 m/s
viscosity (323.15 K, x1 = 1): 11.1 mPa·s

CCO + CC[n+]1ccn(C)c1.N#C[S-]
speed of sound (283.15 K, x2 = 0): 1194.7 m/s
viscosity (283.15 K, x2 = 0): 1.44 mPa·s
speed of sound (313.15 K, x2 = 0): 1092.2 m/s
viscosity (313.15 K, x2 = 0): 0.83 mPa·s
speed of sound (323.15 K, x2 = 0): 1059.1 m/s
viscosity (323.15 K, x2 = 0): 0.7 mPa·s
